{
  "source": "patent US8796260B2",
  "about": "“Imidazobenzazepine CGRP receptor antagonists” (Merck Sharp & Dohme Corp., priority 2008, dated 2014)",
  "key": {"[1]": {"target": "T1, CGRP receptors in SK-N-MC cell membranes (Homo sapiens, UniProt O60894+Q16602)", "T1 construct": "receptors in SK-N-MC cell membranes; endogenous in cells; host or cells: SK-N-MC cell membranes", "T1 sequence (Q16602 23-461)": "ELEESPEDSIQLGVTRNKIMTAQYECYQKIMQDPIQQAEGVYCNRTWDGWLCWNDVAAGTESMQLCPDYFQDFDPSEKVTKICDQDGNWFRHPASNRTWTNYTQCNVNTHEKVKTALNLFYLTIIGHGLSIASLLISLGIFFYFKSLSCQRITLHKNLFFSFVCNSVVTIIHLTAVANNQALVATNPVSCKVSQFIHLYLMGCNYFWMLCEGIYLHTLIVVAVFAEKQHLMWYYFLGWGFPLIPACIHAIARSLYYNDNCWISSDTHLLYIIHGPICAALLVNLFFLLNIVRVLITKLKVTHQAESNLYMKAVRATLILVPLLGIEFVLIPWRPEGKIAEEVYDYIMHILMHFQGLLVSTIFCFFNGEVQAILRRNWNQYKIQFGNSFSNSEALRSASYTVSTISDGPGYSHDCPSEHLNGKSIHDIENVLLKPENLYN", "T1 sequence (O60894 27-148)": "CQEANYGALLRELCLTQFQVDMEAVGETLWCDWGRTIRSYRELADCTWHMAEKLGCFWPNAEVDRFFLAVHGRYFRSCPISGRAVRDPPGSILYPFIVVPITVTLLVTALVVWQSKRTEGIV", "test": "Native receptor binding assay (125I-CGRP, SK-N-MC cell membranes)", "conditions": "10 pM 125I-CGRP", "method": "NATIVE RECEPTOR BINDING ASSAY: The binding of ^125I-CGRP to receptors in SK-N-MC cell membranes was carried out essentially as described (Edvinsson et al. (2001) Eur. J. Pharmacal. 415, 39-44). Briefly, membranes (25 μg) were incubated in 1 mL of binding buffer [10 mM HEPES, pH 7.4, 5 mM MgCl2 and 0.2% bovine serum albumin (BSA)] containing 10 pM ^125I-CGRP and antagonist. After incubation at room temperature for 3 h, the assay was terminated by filtration through GFB glass fibre filter plates (PerkinElmer) that had been blocked with 0.5% polyethyleneimine for 3 h. The filters were washed three times with ice-cold assay buffer (10 mM HEPES, pH 7.4 and 5 mM MgCl2), then the plates were air dried. Scintillation fluid (50 μL) was added and the radioactivity was counted on a Topeount (Packard Instrument). Data analysis was carried out by using Prism and the Ki was determined by using the Cheng-Prusoff equation (Cheng & Prusoff (1973) Biochem. Pharmacol. 22, 3099-3108)."}, "[2]": {"target": "T2, recombinant human CL receptor/RAMP1 (Homo sapiens, UniProt O60894+Q16602)", "T2 construct": "expressed in transfected cells", "T2 sequence (Q16602 23-461)": "as the sequence (Q16602 23-461) above", "T2 sequence (O60894 27-148)": "as the sequence (O60894 27-148) above", "test": "Recombinant receptor binding assay (125I-hCGRP)", "conditions": "recombinant human CL receptor/RAMP1 membranes, 10 pM 125I-hCGRP", "method": "(§1) RECOMBINANT RECEPTOR: Human CL receptor (Genbank accession number L76380) was subcloned into the expression vector pIREShyg2 (BD Biosciences Clontech) as a 5′NheI and 3′ PmeI fragment. Human RAMP I (Genbank accession number AJ001014) was subcloned into the expression vector pIRESpuro2 (BD Biosciences Clontech) as a 5′NheI and 3′NotI fragment. HEK 293 cells (human embryonic kidney cells; ATCC #CRL-1573) were cultured in DMEM with 4.5 g/L glucose, 1 mM sodium pyruvate and 2 mM glutamine supplemented with 10% fetal bovine serum (FBS), 100 units/mL penicillin and 100 μg/mL streptomycin, and maintained at 37° C. and 95% humidity. Cells were subcultured by treatment with 0.25% trypsin with 0.1% EDTA in HBSS. Stable cell line generation was accomplished by co-transfecting 10 μg of DNA with 30 μg Lipofectamine 2000 (Invitrogen) in 75 cm^2 flasks. CL receptor and RAMP I expression constructs were co-transfected in equal amounts. Twenty-four hours after transfection the cells were diluted and selective medium (growth medium+300 μg/mL hygromycin and 1 μg/mL puromycin) was added the following day. A clonal cell line was generated by single cell deposition utilizing a FACS Vantage SE (Becton Dickinson). Growth medium was adjusted to 150 μg/mL hygromycin and 0.5 μg/mL puromycin for cell propagation. […]"}, "[3]": {"target": "T2, recombinant human CL receptor/RAMP1", "test": "Recombinant receptor functional assay (cAMP after human α-CGRP stimulation)", "format": "cell-based", "conditions": "HEK 293 cells, 0.3 nM human α-CGRP", "method": "as §1, with “amounts.” for “amounts. Twenty-four hours after transfection the cells were diluted and selective medium (growth medium+300 μg/mL hygromycin and 1 μg/mL puromycin) was added the following day. A clonal cell line was generated by single cell deposition utilizing a FACS Vantage SE (Becton Dickinson). Growth medium was adjusted to 150 μg/mL hygromycin and 0.5 μg/mL puromycin for cell propagation.”\nRECOMBINANT RECEPTOR FUNCTIONAL ASSAY: Cells were plated in complete growth medium at 85,000 cells/well in 96-well poly-D-lysine coated plates (Corning) and cultured for ˜19 h before assay. […] Dose response curves were plotted and IC50 values determined from a 4-parameter logistic fit as defined by the equation y=((a−d)/(1+(x/c)^b)+d, where y=response, x=dose, a=max response, d=min response, c=inflection point and b=slope."}, "[4]": {"conditions": "clinical trials (Olesen et al. 2004); cited from earlier work"}, "[5]": {"system": "headache induced by CGRP infusion", "conditions": "control group (Petersen et al. 2005); cited from earlier work"}, "facial blood flow [6]": {"system": "facial blood flow", "conditions": "marmoset, electrical stimulation of the trigeminal ganglion (Doods et al. 2000); cited from earlier work"}, "[7]": {"system": "diameter of the middle meningeal artery", "conditions": "rats, electrical stimulation of the dura mater, prior administration (Williamson et al. 1997); cited from earlier work"}, "facial blood flow [8]": {"system": "facial blood flow", "conditions": "rat, trigeminal ganglion stimulation (Escott et al. 1995); cited from earlier work"}},
  "note": "Ends that are not written are not given here.",
  "data": [
    {"compound": "CC(C)(O)c1cnc2n1Cc1c(cc(Cl)c3[nH]ncc13)C[C@H]2NC(=O)c1ccc2c(c1)CC1(C2)C(=O)Nc2ncccc21", "note": "(stereo partly drawn) [Example 4, N-[(7R)-4-chloro-10-(1-hydroxy-1-methylethyl)-3,6,7,12-tetrahydroimidazo[1′,2′:1,7]azepino[3,4-e]indazol-7-yl]-2′-oxo-1,1′,2′,3-tetrahydrospiro[indene-2,3′-pyrrolo[2,3-b]pyridine]-5-carboxamide]", "values": [
      {"measurement": "Ki", "setting": "[1]", "value": "< 1", "unit": "µM"},
      {"measurement": "Ki", "setting": "[2]", "value": "< 1", "unit": "µM"},
      {"measurement": "IC50", "setting": "[3]", "value": "< 1", "unit": "µM"}
    ]},
    {"compound": "NCCCC[C@H](NC(=O)[C@@H](Cc1cc(Br)c(O)c(Br)c1)NC(=O)N1CCC(N2Cc3ccccc3NC2=O)CC1)C(=O)N1CCN(c2ccncc2)CC1", "note": "[BIBN4096BS]", "values": [
      {"measurement": "treating acute attacks of migraine", "setting": "[4]", "value": "effective"},
      {"measurement": "prevention of headache induced by CGRP infusion", "setting": "[5]", "value": "able to prevent headache"},
      {"measurement": "effect on increase in facial blood flow", "setting": "facial blood flow [6]", "value": "could be blocked"}
    ]},
    {"compound": "CGRP(8-37): a peptide CGRP antagonist; fragment of CGRP that lacks seven N-terminal amino acid residues (VTHRLAGLLSRSGGVVKNNFVPTNVGSKAF; ends and bridges not checked; UniProt P06881 90-119, looked up, fragment)", "values": [
      {"measurement": "effect on increased diameter of the middle meningeal artery", "setting": "[7]", "value": "blocked"},
      {"measurement": "effect on increased facial blood flow", "setting": "facial blood flow [8]", "value": "inhibited"}
    ]}
  ]
}
